Paper PMC9131871, “Impact of Micropolymorphism Outside the Peptide Binding Groove in the Clinically Relevant Allele HLA-C*14 on T Cell Responses in HIV-1 Infection” (Journal of Virology, 2022)

What was measured:
HLA-C*14:03 = HLA-C*14:03 (Homo sapiens, UniProt P10321, A176E/A330V/A35S/A97T/C350S/D114A/D33S/L171W/L180R/L218V/M285V/M309V/M331V/P208H/Q277E/Q291P/R121W/R243W/R45H/S123F/S297R/S48A/T329A/T363A/V319A); assay: HLA stabilization assay on RMA-S-C1403 cells; assay type: cell-based; settings: 100 μM peptide, 26°C 1 h then 37°C 3 h, MAb DT-9 staining, flow cytometry, triplicate assays
Excerpt: (§1) We next sought to confirm the HLA-C*14:02/C*14:03 restriction of the HIV-1 peptides identified by LC-MS/MS. First, we tested their ability to bind to HLA-C*14:02 or HLA-C*14:03 using HLA stabilization assays. Of the 25 HIV-1 peptides, three Env peptides, Env SI8, Env AM11, and Env VM9, are located in variable regions V2 and V3. In addition, Pol AF10, Pol PF8, Pol VWL9, and Env YI9 are located in regions where high sequence variation is reported in the LANL database. Therefore, we excluded these peptides from further analysis. The other 18 peptides were synthesized and tested for binding to HLA-C*14:02/C*14:03 by analyzing their ability to stabilize surface HLA expression on TAP-defective RMA-S cell lines expressing HLA-C*14:02 (RMA-S-C1402) or HLA-C*14:03 (RMA-S-C1403). These RMA-S cell lines express equivalent levels of HLA-C*14:02 and HLA-C*14:03 on the cell surface at 26°C, and surface HLA expression declines to very low levels when the cells are warmed to 37°C in the absence of exogenously added stabilizing peptides (Fig. 2A). Peptide binding was determined by evaluating whether HLA-I expression was stabilized in the presence of 100 μM peptide.
(§2) FIG 2 HLA-C*14:02/14:03 binding of HIV-1 peptides eluted from NL4-3-infected .221-C1402 and .221-C1403 cells as assessed by HLA stabilization assay using RMA-S cell lines. (A) Histogram plots showing surface expression of HLA-C*14:02 or HLA-C*14:03 on RMA-S-C1402 or RMA-S-C1403 cells at 26°C and after cells cultured at 26°C had been warmed to 37°C for 3 h. MFI values of cells cultured at 26°C were 27.4 for HLA-C*14:02 and 28.1 for HLA-C*14:03. MFI values of cells cultured at 37°C for 3 h were 5.0 for HLA-C*14:02 and 6.54 for HLA-C*14:03. (B) Analysis of binding of 14 HIV-1 NL4.3 peptides identified by LC-MS/MS to HLA-C*14:02 (blue) or HLA-C*14:03 (red) as measured in HLA class I stabilization assays using RMA-S-C1402 or RMA-S-C1403 cells. (C) Analysis of binding of 9 additional variant peptides to HLA-C*14:02 (blue) or C*14:03 (red). For panels B and C, peptides were tested at a concentration of 100 μM. Results are plotted as percent surface HLA-I expression relative to that at 26°C, calculated as the ratio of the MFI of peptide-pulsed RMA-S-C1402 or RMA-S-C1403 cells to that of control (non-peptide-pulsed) cells kept at 26°C, multiplied by 100. Means and standard deviations (SDs) from triplicate assays are shown. Statistical analyses were performed by unpaired t test. The P values were corrected for multiple testing. *, P < 0.05 and q < 0.05; **, P < 0.01 and q < 0.03; ***, P < 0.001 and q < 0.005.
(§3) The relative affinity of peptide binding to HLA-C*14:02 and -C*14:03 was examined using RMA-S-C1402 and RMA-S-C1403 cells as previously described ([15]). Briefly, RMA-S cells were cultured at 26°C for 16 h, pulsed with peptides at 26°C for 1 h, and subsequently incubated at 37°C for 3 h. Staining of cell surface HLA-C molecules was performed with the HLA-C-reactive monoclonal antibody (MAb) DT-9 ([48]), a gift from Mary Carrington, NIH, and fluorescein isothiocyanate (FITC)-conjugated sheep anti-mouse IgG (Jackson ImmunoResearch). Staining data were acquired on a FACSCanto II instrument (BD Biosciences) and analyzed using FlowJo 10.7.1 software. Relative HLA expression was calculated as the ratio of the mean fluorescence intensity (MFI) of peptide-pulsed RMA-S-C1402 cells or RMA-S-C1403 cells to that of control (non-peptide-pulsed) cells kept at 26°C, multiplied by 100 to express the values for peptide-pulsed cells as a percentage of that for the control cells at 26°C.

HLA-C*14:02 = HLA-C*14:02 (Homo sapiens, UniProt P10321, A176E/A330V/A35S/A97T/C350S/D114A/D33S/L171W/L180R/L218V/M285V/M309V/M331V/P208H/Q277E/Q291P/R121W/R243W/S123F/S297R/S48A/T329A/T363A/V319A); assay: HLA stabilization assay on RMA-S-C1402 cells; assay type: cell-based; settings: 100 μM peptide, 26°C 1 h then 37°C 3 h, MAb DT-9 staining, flow cytometry, triplicate assays
Excerpt: as §1, §2, §3

[1] = test system: T cells of a volunteer enrolled in an HIV vaccine trial; settings: cited from earlier work
Excerpt: We identified 6 HLA-C*14:02/C*14:03 epitopes in the present study. Five of these peptides were detected by LC-MS/MS in HLA-I eluates from both HLA-C*14:02^+ and HLA-C*14:03^+ .221 cells infected with HIV-1, and T cells specific for all 6 epitopes effectively recognized both HIV-1-infected HLA-C*14:02^+ and HLA-C*14:03^+ .221 cells. […] Responses to two of these peptides, Gag LY9 and Nef YT9, were identified in a previous study that analyzed T cell responses ...

Sequence	binding to HLA-C*14:03 (stabilization of surface HLA expression) (HLA-C*14:03)	binding to HLA-C*14:02 (stabilization of surface HLA expression) (HLA-C*14:02)	HLA-C*14-restricted HIV-1 epitope status [1]
FHHMAREK [NefFL8-4M8K, variant of Nef FL8, FHHMAREK, present in Japanese cohort viruses]	detectable binding to the HLA-C*14 molecules with the exception of NefFL8-4M8K	detectable binding to the HLA-C*14 molecules with the exception of NefFL8-4M8K	
LYNTVATL [Gag LL8-5V7T]			identified as an HLA-C*14-restricted HIV-1 epitope
